A value given as a limit tells only on which side of the number the result lay.

Experimental findings from patent US11566007B2, “Ras inhibitors” (Revolution Medicines, Inc., priority 2019, dated 2023) are described below.

Experiment [1] has as its system NCI-H358 cells (K-Ras G12C). The experiment can be described thus: Potency assay: pERK in NCI-H358 cells. It counts as cell-based, human. As to conditions: Homo sapiens, NCI-H358; H358 KRAS G12C; read-out: pERK EC50. Summed up: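 Compounds are dosed as ten 3-fold dilutions from a 10 mM DMSO stock, in duplicate, and left on cells for 4 h at 37 °C, 5% CO2. Phospho-ERK1/2 is then quantified by AlphaLISA SureFire Ultra or In-Cell Western, and IC50 is derived from a 4-parameter sigmoid against log concentration.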

The next experiment concerns the target K-Ras G13C (Homo sapiens (Human), UniProt P01116+P62937, G13C). The experiment is described as follows: Ras-Raf (BRAF RBD) disruption / FRET / MOA assay, KRAS G13C. It counts as biochemical. The conditions noted are these: KRAS G13C; Ras-Raf disruption/FRET/MOA assay; read-out: IC50* KRAS G13C FRET data. Summed up: (§1)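 Compound-driven ternary complex of nucleotide-loaded Ras with cyclophilin A, disrupting BRAF RBD binding. 10-point 3-fold dilution from 30 μM final, 3 h at 25° C, then anti-His Eu-W1024 (10 nM) and anti-GST allophycocyanin (50 nM) for 1.5 h. IC50 from TR-FRET ratio decrease versus DMSO.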

The next experiment concerns the target KRAS G12V (Homo sapiens (Human), UniProt P01116+P62937, G12V). The experiment is described as follows: Ras-Raf (BRAF RBD) disruption / FRET / MOA assay, KRAS G12V. It counts as biochemical. As to conditions: read-out: IC50* KRAS G12V FRET data. Summed up: as §1
In the next experiment the target is NRAS G12C (Homo sapiens (Human), UniProt P01111+P62937, G12C). The experiment is described as follows: Ras-Raf (BRAF RBD) disruption / FRET / MOA assay, NRAS G12C. It counts as biochemical. The conditions noted are these: read-out: IC50* NRAS G12C FRET data. Summed up: as §1
In a further experiment the target is NRAS WT (Homo sapiens (Human), UniProt P01111+P62937). The experiment is described as follows: Ras-Raf (BRAF RBD) disruption / FRET / MOA assay, NRAS WT. It counts as biochemical. The conditions noted are these: read-out: IC50* NRAS WT FRET data. Summed up: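 Compounds (30 μM top final, 10-point 3-fold dilutions) incubated 3 h at 25° C with nucleotide-loaded Ras, cyclophilin A and BRAF RBD. Detection with 10 nM anti-His Eu-W1024 and 50 nM anti-GST allophycocyanin over another 1.5 h. Lowered TR-FRET ratio relative to DMSO wells gives IC50.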
Chain of NRAS WT (P01111 whole entry): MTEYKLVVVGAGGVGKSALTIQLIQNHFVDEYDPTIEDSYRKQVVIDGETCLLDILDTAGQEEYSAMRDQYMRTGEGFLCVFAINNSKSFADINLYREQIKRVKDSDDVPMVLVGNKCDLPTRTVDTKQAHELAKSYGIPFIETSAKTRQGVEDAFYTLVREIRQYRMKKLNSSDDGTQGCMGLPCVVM
Chain of NRAS WT (P62937 whole entry): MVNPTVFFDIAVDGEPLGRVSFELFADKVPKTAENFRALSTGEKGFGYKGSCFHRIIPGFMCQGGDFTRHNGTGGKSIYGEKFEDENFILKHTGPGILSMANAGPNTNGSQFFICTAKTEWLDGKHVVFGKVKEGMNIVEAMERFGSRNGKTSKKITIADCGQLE

Chain of NRAS G12C (P01111 whole entry G12C): as the sequence (P01111 whole entry) above, with G12C counted along it
Chain of NRAS G12C (P62937 whole entry): as the sequence (P62937 whole entry) above
Chain of KRAS G12V (P01116-2 other isoform, or with tags, fused parts or gaps G12V): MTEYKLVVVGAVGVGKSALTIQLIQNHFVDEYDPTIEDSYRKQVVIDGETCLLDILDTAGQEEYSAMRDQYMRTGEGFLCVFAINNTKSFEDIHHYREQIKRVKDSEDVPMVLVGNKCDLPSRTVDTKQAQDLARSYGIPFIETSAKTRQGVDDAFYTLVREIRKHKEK
Chain of KRAS G12V (P62937 whole entry): as the sequence (P62937 whole entry) above
Chain of K-Ras G13C (P01116-2 other isoform, or with tags, fused parts or gaps G13C): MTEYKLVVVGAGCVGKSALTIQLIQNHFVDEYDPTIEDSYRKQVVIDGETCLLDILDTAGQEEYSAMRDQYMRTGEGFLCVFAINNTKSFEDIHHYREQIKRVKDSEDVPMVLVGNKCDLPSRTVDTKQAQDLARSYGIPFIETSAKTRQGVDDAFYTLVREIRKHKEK
Chain of K-Ras G13C (P62937 whole entry): as the sequence (P62937 whole entry) above

Consider `CCn1c(-c2cccnc2[C@H](C)OC)c2c3cc(ccc31)N1CCC[C@@H](C[C@H](NC(=O)[C@@H](COC3CN(C(=O)C#CC(C)(C)N(C)C)C3)C(C)C)C(=O)N3CCC[C@H](N3)C(=O)OCC(C)(C)C2)C1` (atropisomer, axis not shown) [Example A715, (2R)-2-(((1-(4-(dimethylamino)-4-methylpent-2-ynoyl)azetidin-3-yl)oxy)methyl)-N-((2^3S,6^3S,4S)-1^1-ethyl-1^2-(2-((S)-1-methoxyethyl)pyridin-3-yl)-10,10-dimethyl-5,7-dioxo-6^1,6^2,6^3,6^4,6^5,6^6-hexahydro-1^1H-8-oxa-1(5,3)-indola-6(1,3)-pyridazina-2(1,3)-piperidinacycloundecaphane-4-yl)-3-methylbutanamide], for which, in experiment [1], the EC50 is less than 5 µM. In addition, the IC50 at K-Ras G13C is more than 10 µM; at KRAS G12V, more than 10 µM; on NRAS G12C, 0.01 to 0.1 µM; at NRAS WT, more than 10 µM.

In the case of `C=CC(=O)N1CC2(COCCN2C(=O)N(C)[C@H](C(=O)N[C@H]2Cc3nc(cs3)-c3ccc4c(c3)c(c(-c3cccnc3[C@H](C)OC)n4CC)CC(C)(C)COC(=O)[C@@H]3CCCN(N3)C2=O)C(C)C)C1` (atropisomer, axis not shown) [Example A352], the EC50 in experiment [1] is less than 5 µM. Also, the IC50 at K-Ras G13C was more than 10 µM; on KRAS G12V it was more than 10 µM; at NRAS G12C, 0.01 to 0.1 µM; on NRAS WT it was 1 to 10 µM.

Turning to `CO[C@@H](C)c1ncccc1-c1c2c3cc(ccc3n1CC(F)(F)F)-c1nc(co1)C[C@H](NC(=O)[C@@H](COC1CN(C(=O)C#CC(C)(C)N(C)C)C1)C(C)C)C(=O)N1CCC[C@H](N1)C(=O)OCC(C)(C)C2` (atropisomer, axis not shown) [Example A674], in experiment [1], the EC50 was less than 5 µM. Moreover, the IC50 on K-Ras G13C is 1 to 10 µM; on KRAS G12V, more than 10 µM; on NRAS G12C it was 0.01 to 0.1 µM; on NRAS WT, more than 10 µM.

Take `C=CC(=O)N1CC[C@H](C(=O)N(C)[C@H](C(=O)N[C@H]2Cc3cc(C)cc(c3)-c3ccc4c(c3)c(c(-c3cccnc3[C@H](C)OC)n4CC)CC(C)(C)COC(=O)[C@@H]3CCCN(N3)C2=O)C(C)C)C1` (atropisomer, axis not shown) [Example A498]: the 50% effective concentration (EC50) in experiment [1] was less than 5 µM. For the same compound, the concentration for half-maximal inhibition (IC50) at K-Ras G13C lay in the range of 1 to 10 µM; at KRAS G12V, 1 to 10 µM; on NRAS G12C it was 0.1 to 1 µM; on NRAS WT, 1 to 10 µM.
